Results on 11 molecules are retold here after patent US12552772B2, “2-pyrazole anilines and related analogs for inhibiting YAP/TAZ-TEAD” (KATHOLIEKE UNIVERSITEIT LEUVEN, priority 2021, dated 2026).

Structures are written as SMILES.

What all share (type): cell-based
For assay [1], the system named is YAP/TAZ-TEAD transcription. Kind of assay: Reporter gene assay for measuring the inhibition of YAP/TAZ-TEAD transcription (TEAD-responsive element luciferase reporter in Hek293T cells). The settings on record: 24 hours incubation. Put shortly: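 Percent inhibition, scaled between vehicle (0%) and a positive control inhibitor (100%), came from SteadyLite luciferase signal after 24 h compound exposure at 37 °C/5% CO2. Cells: Hek293T transiently carrying a TEAD-responsive luciferase reporter; EC50 derived.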
On the technique in general: In a reporter assay the amount or activity of a reporter protein is the signal.

The test system of another assay is NCI-H226. Kind of assay: Mesothelioma cell line proliferation assay (ATPlite), NCI-H226. The settings on record: NCI-H226 cells, 6 days, ATPlite cell viability. As to the method:
(§1) Mesothelioma cell lines, NCI-H226 and NCI-H2052 (all sourced from the ATCC cell culture collection) are plated in 96-well plates (Corning® 96 Well White Polystyrene Microplate clear flat bottom, white polystyrene (TC-Treated)), at 1500 cells/well in full medium (RPMI 1640 ATCC modification with L-glutamine, HEPES, Phenol Red, Sodium Pyruvate, High glucose, Low sodium bicarbonate and 10% fetal bovine serum). Cells are incubated overnight at 37° C. in an incubator with 5% CO2. Then compounds, dissolved in DMSO, are added in dose-response. Cells are incubated with compound dilutions for another 6 days at 37° C. in an incubator with 5% CO2. Cell viability is quantitated using the ATPlite kit (Perkin-Elmer) and the luminescence is read-out using an Envision instrument (Perkin-Elmer). The amount of relative light units produced using the ATPlite kit is used to calculated percent of inhibition.
(§2) The activities of example compounds tested are depicted in the table below. The activity ranges A, B and C refer to EC50 values in the mesothelioma cell line proliferation assay as described as follows: “A”: EC50<1 μM; “B”: 1 μM s EC50≤10 μM and “C”: EC50>10 μM. NT: not tested.
On the technique in general: In ATP-based viability assays light output follows the ATP content of the culture.

For the next assay, the system named is NCI-H2052. Nature of the assay: Mesothelioma cell line proliferation assay (ATPlite), NCI-H2052. The note with it: NCI-H2052 cells, 6 days, ATPlite cell viability. Here is the method: as §1, §2

Take `C=CC(=O)N1CCC(c2ccc(-c3ccc(F)cc3)cc2-c2ccn(C(F)F)n2)C1` (stereo not drawn) [Cpd. No. 261-En2, 1-(3-(3-(1-(difluoromethyl)-1H-pyrazol-3-yl)-4′-fluoro-[1,1′-biphenyl]-4-yl)pyrrolidin-1-yl)prop-2-en-1-one]: the EC50 in assay [1] was less than 1 µM; in the assay with NCI-H226 it was less than 1 µM; in the assay on NCI-H2052 it was more than 10 µM.
For the molecule `C=CC(=O)N1CCC(c2cnc(-c3ccc(F)cc3)cc2-c2ccn(C(F)F)n2)C1` (stereo not drawn) [Cpd. No. 262, 1-(3-(4-(1-(difluoromethyl)-1H-pyrazol-3-yl)-6-(4-fluorophenyl)pyridin-3-yl)pyrrolidin-1-yl)prop-2-en-1-one], the EC50 in assay [1] (Homo sapiens, HEK-293T) is less than 1 µM; with NCI-H226 (Homo sapiens, 144 h), less than 1 µM; in the assay with NCI-H2052, 1 to 10 µM.
With `C=CC(=O)N1CCC(c2cnc(-c3ccc(F)cc3)cc2-c2ccn(C(F)F)n2)C1` (stereo not drawn) [Cpd. No. 262-En1, 1-(3-(4-(1-(difluoromethyl)-1H-pyrazol-3-yl)-6-(4-fluorophenyl)pyridin-3-yl)pyrrolidin-1-yl)prop-2-en-1-one], the figures for the EC50 (in assay [1]; in the assay on NCI-H226; in the assay on NCI-H2052) were less than 1 µM, less than 1 µM and 1 to 10 µM, respectively.
`C=CC(=O)N1CCC(c2cnc(-c3ccc(F)cc3)cc2-c2ccn(C(F)F)n2)C1` (stereo not drawn) [Cpd. No. 262-En2, 1-(3-(4-(1-(difluoromethyl)-1H-pyrazol-3-yl)-6-(4-fluorophenyl)pyridin-3-yl)pyrrolidin-1-yl)prop-2-en-1-one]: the EC50 in assay [1] is less than 1 µM; in the assay on NCI-H226 it was less than 1 µM; in the assay on NCI-H2052, more than 10 µM.
Turning to `CNS(=O)(=O)CCNc1cc(-c2ccccc2)cc(-c2ccn(Cc3cccnc3)n2)c1` [compound 052, N-methyl-2-((5-(1-(pyridin-3-ylmethyl)-1H-pyrazol-3-yl)-[1,1′-biphenyl]-3-yl)amino)ethane-1-sulfonamide], the EC50 in assay [1] (Homo sapiens, HEK-293T) is 1 to 20 µM; in the assay on NCI-H226 (Homo sapiens, 144 h) it was more than 10 µM; in the assay with NCI-H2052 (Homo sapiens, NCI-H2052, 144 h), more than 10 µM.
As to `C=CC(=O)Nc1cc(-c2ccccc2)cc(-c2ccn(Cc3cccnc3)n2)c1` [compound 083, N-(5-(1-(pyridin-3-ylmethyl)-1H-pyrazol-3-yl)-[1,1′-biphenyl]-3-yl)acrylamide], the EC50 in assay [1] (Homo sapiens, HEK-293T) was less than 1 µM; in the assay on NCI-H226 (Homo sapiens, 144 h) it was less than 1 µM; in the assay with NCI-H2052 (Homo sapiens, NCI-H2052, 144 h), 1 to 10 µM.
`CNS(=O)(=O)CCNc1cnc(-c2ccc(F)cc2)cc1-c1ccn(C(F)F)n1` [compound 131, 2-((4-(1-(difluoromethyl)-1H-pyrazol-3-yl)-6-(4-fluorophenyl)pyridin-3-yl)amino)-N-methylethane-1-sulfonamide]: the EC50 was less than 1 µM in assay [1] (Homo sapiens, HEK-293T); 1 to 10 µM in the assay on NCI-H226 (Homo sapiens, 144 h); more than 10 µM in the assay on NCI-H2052 (Homo sapiens, NCI-H2052, 144 h).
Regarding `CNS(=O)(=O)CCNc1ccc(-c2ccc(F)cc2)nc1-c1ccn(C(F)F)n1` [compound 132, 2-((2-(1-(difluoromethyl)-1H-pyrazol-3-yl)-6-(4-fluorophenyl)pyridin-3-yl)amino)-N-methylethane-1-sulfonamide], the concentration for a half-maximal effect (EC50) in assay [1] (Homo sapiens, HEK-293T) is less than 1 µM; with NCI-H226 (Homo sapiens, 144 h) it was more than 10 µM; in the assay on NCI-H2052 (Homo sapiens, NCI-H2052, 144 h) it was more than 10 µM.
In the case of `C=CC(=O)NCc1cc(-c2ccccc2)cc(-c2ccn(C)n2)c1` [compound 137, N-((5-(1-methyl-1H-pyrazol-3-yl)-[1,1′-biphenyl]-3-yl)methyl)acrylamide], the EC50 is less than 1 µM in assay [1] (Homo sapiens, HEK-293T); less than 1 µM in the assay on NCI-H226 (Homo sapiens, 144 h); more than 10 µM with NCI-H2052 (Homo sapiens, NCI-H2052, 144 h).
With `C=CC(=O)NCc1ccc(-c2ccc(C(F)(F)F)cc2)cc1-c1ccn(C)n1` [compound 140, N-((3-(1-methyl-1H-pyrazol-3-yl)-4′-(trifluoromethyl)-[1,1′-biphenyl]-4-yl)methyl)acrylamide], the EC50 in assay [1] (Homo sapiens, HEK-293T) is less than 1 µM; with NCI-H226 (Homo sapiens, 144 h), less than 1 µM; in the assay with NCI-H2052 (Homo sapiens, NCI-H2052, 144 h), less than 1 µM.
As for `C=CC(=O)NCc1ccc(-c2cccc(C(F)(F)F)c2)cc1-c1ccn(C)n1` [compound 141, N-((3-(1-methyl-1H-pyrazol-3-yl)-3′-(trifluoromethyl)-[1,1′-biphenyl]-4-yl)methyl)acrylamide], the EC50 was less than 1 µM in assay [1] (Homo sapiens, HEK-293T); less than 1 µM with NCI-H226 (Homo sapiens, 144 h); less than 1 µM in the assay with NCI-H2052 (Homo sapiens, NCI-H2052, 144 h).

Broadly, the EC50 is the concentration giving half of the maximal effect.
